Read-outs that look alike come from different tables or passages of the source.
Assays:
Format in all cases: biochemical
HDAC7 = target: T1, HDAC7 (Homo sapiens, UniProt Q8WUI4); test: HDAC enzymatic assay, HDAC7
T1 sequence (Q8WUI4 1-952): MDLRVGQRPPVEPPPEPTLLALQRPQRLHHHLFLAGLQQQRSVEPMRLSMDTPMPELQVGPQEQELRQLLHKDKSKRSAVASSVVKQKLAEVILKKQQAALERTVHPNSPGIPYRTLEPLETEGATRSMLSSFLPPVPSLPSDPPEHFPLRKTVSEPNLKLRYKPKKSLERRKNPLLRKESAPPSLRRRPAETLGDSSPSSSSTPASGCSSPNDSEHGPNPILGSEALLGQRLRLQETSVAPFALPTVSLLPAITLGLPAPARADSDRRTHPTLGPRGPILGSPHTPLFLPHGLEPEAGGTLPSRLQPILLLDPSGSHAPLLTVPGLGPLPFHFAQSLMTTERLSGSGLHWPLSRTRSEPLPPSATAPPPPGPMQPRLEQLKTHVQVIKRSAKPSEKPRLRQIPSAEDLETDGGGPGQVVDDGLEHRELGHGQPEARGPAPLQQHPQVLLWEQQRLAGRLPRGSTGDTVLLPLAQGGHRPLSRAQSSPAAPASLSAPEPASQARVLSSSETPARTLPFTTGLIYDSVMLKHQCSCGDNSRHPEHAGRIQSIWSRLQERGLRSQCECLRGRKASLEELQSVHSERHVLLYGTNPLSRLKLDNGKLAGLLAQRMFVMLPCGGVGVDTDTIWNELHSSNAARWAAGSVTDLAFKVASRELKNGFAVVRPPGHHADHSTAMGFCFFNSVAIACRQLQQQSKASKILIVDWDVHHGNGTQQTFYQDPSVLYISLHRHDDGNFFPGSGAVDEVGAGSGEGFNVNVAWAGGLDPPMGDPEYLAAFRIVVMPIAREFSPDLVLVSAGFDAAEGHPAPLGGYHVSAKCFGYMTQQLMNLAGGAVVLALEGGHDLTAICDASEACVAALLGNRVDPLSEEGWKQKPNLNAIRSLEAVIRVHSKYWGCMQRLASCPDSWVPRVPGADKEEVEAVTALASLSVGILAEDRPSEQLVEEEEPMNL
Method: (§1) Each compound was dissolved in DMSO, and progressively diluted solutions were used for testing. […] Upon its deacetylation, the fluorophore was released given rise to fluorescence emission which was detected by a fluorimeter, and the IC50 values of the compounds were determined by analyzing dose-response inhibition curves.

HDAC11 = target: T2, HDAC11 (Homo sapiens, UniProt Q96DB2); test: HDAC enzymatic assay, HDAC11
T2 sequence (Q96DB2 1-347): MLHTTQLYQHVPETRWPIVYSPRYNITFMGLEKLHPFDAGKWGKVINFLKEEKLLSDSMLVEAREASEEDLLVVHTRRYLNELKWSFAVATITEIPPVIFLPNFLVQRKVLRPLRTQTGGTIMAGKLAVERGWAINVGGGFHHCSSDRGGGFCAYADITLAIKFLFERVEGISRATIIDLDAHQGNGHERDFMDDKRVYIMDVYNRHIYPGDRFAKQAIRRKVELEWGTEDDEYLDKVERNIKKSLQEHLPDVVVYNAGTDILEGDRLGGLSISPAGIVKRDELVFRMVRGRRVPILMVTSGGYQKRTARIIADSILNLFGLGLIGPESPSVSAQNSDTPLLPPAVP
Method: as §1

HDAC5 = HDAC5 (Homo sapiens, UniProt Q9UQL6); test: HDAC enzymatic assay, HDAC5
Chain of HDAC5 (Q9UQL6 whole entry): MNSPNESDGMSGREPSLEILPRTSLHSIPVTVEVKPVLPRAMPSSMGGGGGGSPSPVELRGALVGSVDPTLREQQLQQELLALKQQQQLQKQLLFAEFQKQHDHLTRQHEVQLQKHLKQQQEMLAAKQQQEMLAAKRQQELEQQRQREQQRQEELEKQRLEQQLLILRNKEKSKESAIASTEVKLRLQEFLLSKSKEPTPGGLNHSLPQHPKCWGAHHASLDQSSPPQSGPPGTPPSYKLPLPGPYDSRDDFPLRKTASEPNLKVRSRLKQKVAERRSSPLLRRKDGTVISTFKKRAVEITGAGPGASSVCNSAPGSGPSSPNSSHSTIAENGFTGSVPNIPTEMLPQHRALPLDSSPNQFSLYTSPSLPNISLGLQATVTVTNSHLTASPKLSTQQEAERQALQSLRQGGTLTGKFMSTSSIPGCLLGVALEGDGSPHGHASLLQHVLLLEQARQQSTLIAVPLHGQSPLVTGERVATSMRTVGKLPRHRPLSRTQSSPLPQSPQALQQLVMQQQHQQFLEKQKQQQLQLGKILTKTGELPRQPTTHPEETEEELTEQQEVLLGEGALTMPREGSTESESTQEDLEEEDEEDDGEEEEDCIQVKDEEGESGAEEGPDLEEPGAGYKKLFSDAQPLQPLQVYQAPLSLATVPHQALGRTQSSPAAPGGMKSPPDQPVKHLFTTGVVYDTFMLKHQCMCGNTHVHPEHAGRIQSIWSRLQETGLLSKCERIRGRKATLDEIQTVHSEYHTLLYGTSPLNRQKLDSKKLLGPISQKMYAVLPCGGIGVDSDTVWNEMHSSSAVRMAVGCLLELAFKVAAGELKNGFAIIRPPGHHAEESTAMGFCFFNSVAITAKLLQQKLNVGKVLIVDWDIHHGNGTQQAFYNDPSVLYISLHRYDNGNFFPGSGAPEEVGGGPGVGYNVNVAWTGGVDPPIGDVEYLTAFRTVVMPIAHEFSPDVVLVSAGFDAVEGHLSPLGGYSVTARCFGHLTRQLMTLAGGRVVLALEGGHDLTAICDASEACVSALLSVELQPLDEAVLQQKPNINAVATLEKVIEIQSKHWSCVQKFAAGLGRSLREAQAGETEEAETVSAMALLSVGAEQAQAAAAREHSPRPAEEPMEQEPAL
Method: as §1

HDAC1 = HDAC1 (Homo sapiens, UniProt Q13547); test: HDAC enzymatic assay, HDAC1
Chain of HDAC1 (Q13547 whole entry): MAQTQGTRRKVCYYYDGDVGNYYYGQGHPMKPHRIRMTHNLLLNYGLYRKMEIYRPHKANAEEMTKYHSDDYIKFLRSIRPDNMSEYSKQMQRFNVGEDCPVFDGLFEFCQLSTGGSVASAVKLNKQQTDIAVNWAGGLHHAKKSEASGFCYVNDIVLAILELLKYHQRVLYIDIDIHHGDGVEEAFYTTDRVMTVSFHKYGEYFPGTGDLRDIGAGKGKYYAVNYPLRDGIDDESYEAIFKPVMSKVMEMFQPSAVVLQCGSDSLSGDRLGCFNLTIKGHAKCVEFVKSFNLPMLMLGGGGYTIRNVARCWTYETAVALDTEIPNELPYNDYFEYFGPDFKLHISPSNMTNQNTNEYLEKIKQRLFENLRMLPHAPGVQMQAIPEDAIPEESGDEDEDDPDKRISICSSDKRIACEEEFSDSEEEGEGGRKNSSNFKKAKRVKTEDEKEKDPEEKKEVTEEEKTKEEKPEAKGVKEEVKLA
Method: as §1

HDAC9 = HDAC9 (Homo sapiens, UniProt Q9UKV0); test: HDAC enzymatic assay, HDAC9
Chain of HDAC9 (Q9UKV0 whole entry): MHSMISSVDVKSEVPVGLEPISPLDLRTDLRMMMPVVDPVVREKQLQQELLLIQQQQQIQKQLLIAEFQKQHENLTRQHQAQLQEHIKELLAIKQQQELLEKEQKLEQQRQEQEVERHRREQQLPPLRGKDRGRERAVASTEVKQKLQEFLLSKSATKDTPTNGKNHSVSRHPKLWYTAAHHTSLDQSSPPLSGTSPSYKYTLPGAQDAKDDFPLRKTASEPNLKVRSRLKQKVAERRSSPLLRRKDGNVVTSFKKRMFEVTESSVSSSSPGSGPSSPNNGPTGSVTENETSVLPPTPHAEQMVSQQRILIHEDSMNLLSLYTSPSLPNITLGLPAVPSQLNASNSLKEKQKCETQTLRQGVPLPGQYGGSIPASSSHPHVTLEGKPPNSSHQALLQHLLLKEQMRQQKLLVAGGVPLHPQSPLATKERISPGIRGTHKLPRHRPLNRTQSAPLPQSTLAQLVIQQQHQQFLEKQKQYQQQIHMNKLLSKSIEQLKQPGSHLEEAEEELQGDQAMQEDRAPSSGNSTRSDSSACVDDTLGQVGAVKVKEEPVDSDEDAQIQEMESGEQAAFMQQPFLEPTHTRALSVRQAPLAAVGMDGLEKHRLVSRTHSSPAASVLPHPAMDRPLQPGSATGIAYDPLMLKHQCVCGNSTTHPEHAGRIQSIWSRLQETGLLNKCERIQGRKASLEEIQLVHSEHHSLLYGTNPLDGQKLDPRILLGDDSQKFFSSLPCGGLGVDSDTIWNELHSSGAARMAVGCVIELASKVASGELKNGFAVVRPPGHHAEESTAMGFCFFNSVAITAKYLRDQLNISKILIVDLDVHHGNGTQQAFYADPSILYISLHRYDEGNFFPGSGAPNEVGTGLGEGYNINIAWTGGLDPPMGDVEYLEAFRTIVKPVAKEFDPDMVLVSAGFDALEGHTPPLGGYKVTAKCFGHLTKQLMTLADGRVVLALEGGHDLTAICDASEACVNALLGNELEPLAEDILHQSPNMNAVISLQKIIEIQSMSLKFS
Method: as §1

HDAC8 = target: T3, HDAC8 (Homo sapiens, UniProt Q9BY41); test: HDAC enzymatic assay, HDAC8
T3 sequence (Q9BY41 1-377): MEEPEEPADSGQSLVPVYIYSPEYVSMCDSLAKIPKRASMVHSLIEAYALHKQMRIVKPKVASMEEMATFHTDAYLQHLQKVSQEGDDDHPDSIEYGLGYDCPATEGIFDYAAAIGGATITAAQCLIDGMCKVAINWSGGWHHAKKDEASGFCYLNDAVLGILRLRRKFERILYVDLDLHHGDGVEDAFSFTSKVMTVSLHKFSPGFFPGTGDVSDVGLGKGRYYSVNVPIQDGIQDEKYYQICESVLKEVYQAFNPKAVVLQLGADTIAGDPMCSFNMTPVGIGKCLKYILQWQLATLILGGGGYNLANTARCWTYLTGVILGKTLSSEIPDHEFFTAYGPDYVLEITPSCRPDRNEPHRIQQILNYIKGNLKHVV
Method: as §1

HDAC2 = HDAC2 (Homo sapiens, UniProt Q92769); test: HDAC enzymatic assay, HDAC2
Chain of HDAC2 (Q92769 whole entry): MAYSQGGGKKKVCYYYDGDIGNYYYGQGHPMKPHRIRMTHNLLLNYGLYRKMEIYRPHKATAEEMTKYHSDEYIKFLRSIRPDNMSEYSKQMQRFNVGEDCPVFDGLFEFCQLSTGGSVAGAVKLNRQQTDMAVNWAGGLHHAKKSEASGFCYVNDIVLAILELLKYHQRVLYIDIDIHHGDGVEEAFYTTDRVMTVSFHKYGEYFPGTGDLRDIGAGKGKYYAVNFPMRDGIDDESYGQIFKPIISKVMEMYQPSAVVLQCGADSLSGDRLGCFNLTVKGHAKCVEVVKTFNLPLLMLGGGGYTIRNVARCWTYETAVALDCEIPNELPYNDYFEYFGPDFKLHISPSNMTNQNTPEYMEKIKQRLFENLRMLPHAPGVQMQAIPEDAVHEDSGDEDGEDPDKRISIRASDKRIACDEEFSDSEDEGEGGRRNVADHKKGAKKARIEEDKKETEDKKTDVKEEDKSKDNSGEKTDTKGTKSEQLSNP
Method: as §1

[1] = target: T4, HDAC3 (complex of full length human HDAC3 with human NCOR2 amino acids 395-489) (Homo sapiens, UniProt O15379); test: HDAC enzymatic assay, HDAC3
T4 construct: complex of full length human HDAC3 with a C-terminal His-tag; His-tag (C); host or cells: baculovirus expression system
T4 sequence (O15379 whole entry, the tested form may be a part): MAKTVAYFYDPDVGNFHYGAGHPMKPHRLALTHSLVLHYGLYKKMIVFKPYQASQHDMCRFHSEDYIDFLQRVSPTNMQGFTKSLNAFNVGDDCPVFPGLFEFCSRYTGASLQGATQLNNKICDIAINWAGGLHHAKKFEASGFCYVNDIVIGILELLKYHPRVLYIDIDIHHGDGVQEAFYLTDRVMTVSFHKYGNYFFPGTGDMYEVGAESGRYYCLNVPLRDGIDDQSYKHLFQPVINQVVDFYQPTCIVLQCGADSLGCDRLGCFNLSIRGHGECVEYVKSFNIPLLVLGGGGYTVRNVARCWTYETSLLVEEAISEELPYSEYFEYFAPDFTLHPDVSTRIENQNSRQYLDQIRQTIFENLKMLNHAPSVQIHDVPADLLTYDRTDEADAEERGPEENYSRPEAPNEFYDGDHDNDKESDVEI
T4 sequence (Q9Y618 395-489 partner limits assumed): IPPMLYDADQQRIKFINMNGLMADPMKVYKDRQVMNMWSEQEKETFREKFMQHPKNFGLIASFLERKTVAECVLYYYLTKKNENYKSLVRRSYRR
Method: as §1

HDAC4 = HDAC4 (Homo sapiens, UniProt P56524); test: HDAC enzymatic assay, HDAC4
Chain of HDAC4 (P56524 whole entry): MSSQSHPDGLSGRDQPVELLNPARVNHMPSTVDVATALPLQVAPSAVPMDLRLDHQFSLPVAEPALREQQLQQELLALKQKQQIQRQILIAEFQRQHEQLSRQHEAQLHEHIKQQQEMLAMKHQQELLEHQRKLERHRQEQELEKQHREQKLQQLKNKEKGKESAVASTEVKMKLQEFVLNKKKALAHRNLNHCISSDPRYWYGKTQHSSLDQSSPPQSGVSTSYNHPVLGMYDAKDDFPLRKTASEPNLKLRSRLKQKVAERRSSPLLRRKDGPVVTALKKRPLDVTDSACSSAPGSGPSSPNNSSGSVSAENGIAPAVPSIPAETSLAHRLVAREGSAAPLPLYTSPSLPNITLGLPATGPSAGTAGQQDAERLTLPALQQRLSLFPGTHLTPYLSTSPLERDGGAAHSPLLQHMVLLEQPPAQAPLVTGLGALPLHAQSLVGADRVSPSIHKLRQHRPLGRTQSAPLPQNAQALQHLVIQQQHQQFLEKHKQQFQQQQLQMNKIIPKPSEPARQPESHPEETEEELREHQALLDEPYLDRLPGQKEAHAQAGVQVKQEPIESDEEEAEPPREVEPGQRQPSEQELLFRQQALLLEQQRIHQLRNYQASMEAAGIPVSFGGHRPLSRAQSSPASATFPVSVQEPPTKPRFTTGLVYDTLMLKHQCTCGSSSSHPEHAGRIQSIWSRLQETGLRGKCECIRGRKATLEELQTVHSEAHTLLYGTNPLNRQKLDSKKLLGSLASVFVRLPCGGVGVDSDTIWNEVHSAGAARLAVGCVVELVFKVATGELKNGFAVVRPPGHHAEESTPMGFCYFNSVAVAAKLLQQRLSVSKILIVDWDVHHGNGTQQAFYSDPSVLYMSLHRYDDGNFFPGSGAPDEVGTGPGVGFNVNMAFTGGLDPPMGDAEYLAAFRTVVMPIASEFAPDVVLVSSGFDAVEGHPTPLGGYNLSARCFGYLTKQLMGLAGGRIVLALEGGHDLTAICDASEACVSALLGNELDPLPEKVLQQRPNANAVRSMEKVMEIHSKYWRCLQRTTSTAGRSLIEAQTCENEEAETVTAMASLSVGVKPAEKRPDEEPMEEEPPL
Method: as §1

[2] = fluorogenic tetrapeptide RHKKAc substrate 10 μM, read-out: HDAC isoforms IC50 (nM), 7
[3] = fluorogenic tetrapeptide RHKKAc substrate 10 μM, read-out: HDAC isoforms IC50 (nM), 11
[4] = fluorogenic tetrapeptide RHKKAc substrate 10 μM, read-out: HDAC isoforms IC50 (nM), 5
[5] = fluorogenic tetrapeptide RHKKAc substrate 10 μM, read-out: HDAC isoforms IC50 (nM), 1
[6] = fluorogenic tetrapeptide RHKKAc substrate 10 μM, read-out: HDAC isoforms IC50 (nM), 9
[7] = fluorogenic tetrapeptide RHKKAc substrate 10 μM, read-out: HDAC isoforms IC50 (nM), 8
[8] = fluorogenic tetrapeptide RHKKAc substrate 10 μM, read-out: HDAC isoforms IC50 (nM), 2
[9] = fluorogenic tetrapeptide RHKKAc substrate 10 μM, read-out: HDAC isoforms IC50 (nM), 3
[10] = fluorogenic tetrapeptide RHKKAc substrate 10 μM, read-out: HDAC isoforms IC50 (nM), 4

Row | Compound | IC50 (HDAC7; [2]) | IC50 (HDAC11; [3]) | IC50 (HDAC5; [4]) | IC50 (HDAC1; [5]) | IC50 (HDAC9; [6]) | IC50 (HDAC8; [7]) | IC50 (HDAC2; [8]) | IC50 [1, 9] | IC50 (HDAC4; [10]) | IC50 (HDAC7; Table 2, thio (SH) vs hydroxamate (CONHOH) MBG analogues, read-out: HDAC isoforms, 7 (IC50)) | IC50 (HDAC11; Table 2, thio (SH) vs hydroxamate (CONHOH) MBG analogues, read-out: HDAC isoforms, 11 (IC50)) | IC50 (HDAC5; Table 2, thio (SH) vs hydroxamate (CONHOH) MBG analogues, read-out: HDAC isoforms, 5 (IC50)) | IC50 (HDAC1; Table 2, thio (SH) vs hydroxamate (CONHOH) MBG analogues, read-out: HDAC isoforms, 1 (IC50)) | IC50 (HDAC9; Table 2, thio (SH) vs hydroxamate (CONHOH) MBG analogues, read-out: HDAC isoforms, 9 (IC50)) | IC50 (HDAC8; Table 2, thio (SH) vs hydroxamate (CONHOH) MBG analogues, read-out: HDAC isoforms, 8 (IC50)) | IC50 (HDAC2; Table 2, thio (SH) vs hydroxamate (CONHOH) MBG analogues, read-out: HDAC isoforms, 2 (IC50)) | IC50 ([1]; Table 2, thio (SH) vs hydroxamate (CONHOH) MBG analogues, read-out: HDAC isoforms, 3 (IC50)) | IC50 (HDAC4; Table 2, thio (SH) vs hydroxamate (CONHOH) MBG analogues, read-out: HDAC isoforms, 4 (IC50))
1 | O=C1CCC[C@@H](C(=O)N[C@@H](CCCCCS)C(=O)NCc2cccc(OCc3ccccc3)c2)N1 [Example 25, (S)-6-Oxo-piperidine-2-carboxylic acid [(S)-1-(3-benzyloxy-benzylcarbamoyl)-6-mercapto-hexyl]-amide] | 100 to 500 nM | 100 to 500 nM | 100 to 500 nM | 100 to 500 nM | 100 to 500 nM | < 50 nM | 100 to 500 nM | 100 to 500 nM | 100 to 500 nM | – | – | – | – | – | – | – | – | –
2 | O=C1NC[C@H](c2ccccc2)[C@H]1C(=O)N[C@@H](CCCCCS)C(=O)Nc1ccccc1 [Example 30, (3R,4S)-2-Oxo-4-phenyl-pyrrolidine-3-carboxylic acid ((S)-6-mercapto-1-phenylcarbamoyl-hexyl)-amide] | 100 to 500 nM | < 50 nM | 100 to 500 nM | 50 to 100 nM | 50 to 100 nM | 100 to 500 nM | 100 to 500 nM | 50 to 100 nM | < 50 nM | – | – | – | – | – | – | – | – | –
3 | O=C1NCCC[C@@H]1C(=O)N[C@@H](CCCCCS)C(=O)Nc1ccccc1 [Example 36, (S)-2-Oxo-piperidine-3-carboxylic acid ((S)-6-mercapto-1-phenylcarbamoyl-hexyl)amide] | 50 to 100 nM | < 50 nM | < 50 nM | < 50 nM | < 50 nM | 100 to 500 nM | < 50 nM | < 50 nM | < 50 nM | – | – | – | – | – | – | – | – | –
4 | Cc1ccc(NC(=O)[C@H](CCCCCS)NC(=O)[C@@H]2CCCC(=O)N2)cc1 [Example 39, (S)-6-Oxo-piperidine-2-carboxylic acid ((S)-6-mercapto-1-p-tolylcarbamoyl-hexyl)amide] | < 50 nM | < 50 nM | < 50 nM | < 50 nM | < 50 nM | 100 to 500 nM | 50 to 100 nM | < 50 nM | 100 to 500 nM | – | – | – | – | – | – | – | – | –
5 | O=C1CCC[C@@H](C(=O)N[C@@H](CCCCCS)C(=O)Nc2ccccc2)N1 [Example 23, (S)-6-Oxo-piperidine-2-carboxylic acid ((S)-6-mercapto-1-phenylcarbamoyl-hexyl)amide] | < 50 nM | < 50 nM | < 50 nM | < 50 nM | < 50 nM | 100 to 500 nM | 50 to 100 nM | < 50 nM | < 50 nM | – | – | – | – | – | – | – | – | –
6 | O=C1NC[C@@H](c2ccccc2)[C@H]1C(=O)N[C@@H](CCCCCS)C(=O)Nc1ccccc1 [Example 29, (3R,4R)-2-Oxo-4-phenyl-pyrrolidine-3-carboxylic acid ((S)-6-mercapto-1-phenylcarbamoyl-hexyl)-amide] | 100 to 500 nM | < 50 nM | 100 to 500 nM | 50 to 100 nM | 50 to 100 nM | 100 to 500 nM | 100 to 500 nM | 50 to 100 nM | < 50 nM | – | – | – | – | – | – | – | – | –
7 | Cc1cccc(NC(=O)[C@H](CCCCCS)NC(=O)[C@@H]2CCCC(=O)N2)c1 [Example 38, (S)-6-Oxo-piperidine-2-carboxylic acid ((S)-6-mercapto-1-m-tolylcarbamoyl-hexyl)amide] | < 50 nM | < 50 nM | < 50 nM | < 50 nM | < 50 nM | 100 to 500 nM | < 50 nM | < 50 nM | 100 to 500 nM | – | – | – | – | – | – | – | – | –
8 | O=C1CCC[C@@H](C(=O)N[C@@H](CCCCCS)C(=O)N2CCc3ccccc3C2)N1 [Example 32, (S)-6-Oxo-piperidine-2-carboxylic acid [(S)-1-(3,4-dihydro-1H-isoquinoline-2-carbonyl)-6-mercapto-hexyl]-amide] | 100 to 500 nM | 100 to 500 nM | 100 to 500 nM | 100 to 500 nM | 100 to 500 nM | 100 to 500 nM | < 50 nM | 100 to 500 nM | < 50 nM | – | – | – | – | – | – | – | – | –
9 | O=C1CC[C@H](C(=O)N[C@@H](CCCCCS)C(=O)Nc2ccccc2)N1 [Example 33, (R)-5-Oxo-pyrrolidine-2-carboxylic acid ((S)-6-mercapto-1-phenylcarbamoyl-hexyl)amide] | < 50 nM | < 50 nM | < 50 nM | < 50 nM | < 50 nM | 100 to 500 nM | 50 to 100 nM | < 50 nM | 50 to 100 nM | < 50 nM | < 50 nM | < 50 nM | < 50 nM | < 50 nM | 100 to 500 nM | 50 to 100 nM | < 50 nM | 50 to 100 nM
10 | O=C1NC[C@H](c2ccccc2)[C@@H]1C(=O)N[C@@H](CCCCCS)C(=O)Nc1ccccc1 [Example 28, (3S,4S)-2-Oxo-4-phenyl-pyrrolidine-3-carboxylic acid ((S)-6-mercapto-1-phenylcarbamoyl-hexyl)-amide] | 100 to 500 nM | < 50 nM | 50 to 100 nM | < 50 nM | < 50 nM | 100 to 500 nM | 100 to 500 nM | < 50 nM | < 50 nM | – | – | – | – | – | – | – | – | –
11 | O=C1CCC[C@@H](C(=O)N[C@@H](CCCCCS)C(=O)NC2CCCC2)N1 [Example 24, (S)-6-Oxo-piperidine-2-carboxylic acid ((S)-1-cyclopentylcarbamoyl-6-mercapto-hexyl)amide] | < 50 nM | 50 to 100 nM | 100 to 500 nM | 100 to 500 nM | < 50 nM | 100 to 500 nM | 100 to 500 nM | 50 to 100 nM | < 50 nM | – | – | – | – | – | – | – | – | –

From US8927533B2, “Thio derivatives bearing lactams as potent HDAC inhibitors and their uses as medicaments” (SIGMA-TAU Industrie Farmaceutiche Riunite S.p.A., priority 2011, dated 2015)
